US9927424B2, “Assays for identifying compounds that modulate bitter taste” (Chromocell Corporation, priority 2013, dated 2018)

Legend:
TAS2R4 [1] = molecular target: T1, TAS2R4 (Homo sapiens, UniProt Q9NYW5); test: Calcium fluorescence functional assay, TAS2R4 cell line with mouse Gα15; type: cell-based; conditions: for TAS2R4 bitter receptor activity (functional response): 20 mM tastant, change in intracellular calcium; for EC50: approximately, increasing concentrations of tastant
T1 construct: expressed in transfected cells
T1 sequence (Q9NYW5 1-299): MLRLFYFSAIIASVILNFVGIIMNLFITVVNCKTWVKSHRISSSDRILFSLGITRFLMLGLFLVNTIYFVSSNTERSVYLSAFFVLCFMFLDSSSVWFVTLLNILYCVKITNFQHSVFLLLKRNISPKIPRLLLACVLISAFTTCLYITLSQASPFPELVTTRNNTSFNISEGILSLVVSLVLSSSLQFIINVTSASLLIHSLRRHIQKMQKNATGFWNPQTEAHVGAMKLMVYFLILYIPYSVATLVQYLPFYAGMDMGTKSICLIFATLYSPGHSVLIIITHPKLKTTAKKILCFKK
Protocol: (§1) A panel of cell lines expressing eight specific bitter taste receptors, a subset of the panel of twenty-five bitter receptors described in International Patent Application Publication WO 2010/088633 (see, e.g., Example 26), was used for the purpose of these analyses. Accordingly, each cell line of the panel expressed a human bitter taste receptor and mouse Gα15 signaling protein.
(§2) Each of the Examples below utilized the following functional assay: • Day 1: Stable cell lines were seeded onto black wall/clear bottom 96-well, plates (e.g., Corning, 3904). Approximately 40K cells were added per well and incubated at 37° C., 5% CO2 overnight in cell growth media (DMEM (Sigma, D5796) supplemented with 10% Fetal Bovine Serum (Sigma, 5178), 2 mM Glutamine (Sigma, G7513)). • Day 2: Growth media was discarded and cells were incubated at 37° C., 5% CO2 for 60 minutes in 100 ul of load solution containing 1× Ca-3 dye (Molecular Devices, R8090), 1% DMSO in buffer containing 130 mM NaCl, 2 mM CaCl2, 5 mM KCl, 1.2 mM MgCl2, 10 mM HEPES and 10 mM Glucose (pH 7.0). Probenecid was not included in the load solution. • Functional assay: After dye loading, cell plates were placed in a fluorescent plate reader (e.g., FDSS6000 (Hamamatsu, Japan)) and receptor stimulation was measured by adding 50 ul of 3× concentrated ligand/agonist stock. Fluorescence was monitored continuously for 10 s before agonist addition and for 100-250 s after stimulation with agonist.
(§3) Receptor Activation is defined as follows: • % Activation=[((Maximum signal fluorescence−Minimum signal fluorescence)−(Maximum control fluorescence−Minimum control fluorescence))/(Maximum buffer fluorescence−Minimum buffer fluorescence)]*100 • Functional Response=[(Maximum signal fluorescence−Minimum signal fluorescence)−(Maximum control fluorescence−Minimum control fluorescence)] • Signal fluorescence: refers to the change in fluorescence seen with addition of ligand • Control fluorescence: refers to the change in fluorescence seen with addition of buffer (negative control) • Calcium signals from ligand and control were normalized to the basal fluorescence of the cells prior to the stimulation.
(§4) A concentration analysis was performed and EC50 values were calculated by nonlinear regression using the formula: Y=Bottom+(Top−Bottom)/(1+10^((Log EC50−X)*Hill Slope)), X=log of dose or concentration, Y=Response (increasing as X increases), Top=maximum signal, Bottom=minimum signal. EC50 (half maximal effective concentration) refers to the molar concentration of the agonist which produces 50% of the maximum possible effective response from that agonist.

TAS2R14 = molecular target: T2, TAS2R14 (Homo sapiens, UniProt Q9NYV8); test: Calcium fluorescence functional assay, TAS2R14 cell line with mouse Gα15; type: cell-based; conditions: for TAS2R14 bitter receptor activity (functional response): 20 mM tastant, change in intracellular calcium; for EC50: approximately, increasing concentrations of tastant
T2 construct: expressed in transfected cells
T2 sequence (Q9NYV8 1-317): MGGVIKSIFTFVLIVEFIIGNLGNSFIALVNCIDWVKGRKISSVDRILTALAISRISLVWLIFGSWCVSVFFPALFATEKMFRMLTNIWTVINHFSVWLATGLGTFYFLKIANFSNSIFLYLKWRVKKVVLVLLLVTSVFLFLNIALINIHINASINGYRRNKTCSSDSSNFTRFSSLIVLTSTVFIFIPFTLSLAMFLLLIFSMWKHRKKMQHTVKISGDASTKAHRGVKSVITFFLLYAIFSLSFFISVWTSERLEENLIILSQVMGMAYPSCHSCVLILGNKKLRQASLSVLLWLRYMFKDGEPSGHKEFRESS
Protocol: as §1, §2, §3, §4

TAS2R44 = molecular target: T3, TAS2R44 (Homo sapiens, UniProt P59538); test: Calcium fluorescence functional assay, TAS2R44 cell line with mouse Gα15; type: cell-based; conditions: for TAS2R44 bitter receptor activity (functional response): 20 mM tastant, change in intracellular calcium; for EC50: approximately, increasing concentrations of tastant
T3 construct: expressed in transfected cells
T3 sequence (P59538 1-309): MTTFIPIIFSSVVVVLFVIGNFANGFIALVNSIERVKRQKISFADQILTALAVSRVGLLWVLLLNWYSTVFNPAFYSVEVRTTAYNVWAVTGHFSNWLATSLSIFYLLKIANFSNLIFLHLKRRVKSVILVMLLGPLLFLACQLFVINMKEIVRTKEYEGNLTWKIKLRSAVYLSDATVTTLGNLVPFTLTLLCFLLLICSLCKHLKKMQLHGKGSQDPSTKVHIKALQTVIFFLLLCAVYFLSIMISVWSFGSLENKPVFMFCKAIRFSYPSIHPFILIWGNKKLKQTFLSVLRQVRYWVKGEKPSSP
Protocol: as §1, §2, §3, §4

TAS2R39 = molecular target: T4, TAS2R39 (Homo sapiens, UniProt P59534); test: Calcium fluorescence functional assay, TAS2R39 cell line with mouse Gα15; type: cell-based; conditions: for TAS2R39 bitter receptor activity (functional response): 20 mM tastant, change in intracellular calcium; for EC50: approximately, increasing concentrations of tastant
T4 construct: expressed in transfected cells
T4 sequence (P59534 1-338): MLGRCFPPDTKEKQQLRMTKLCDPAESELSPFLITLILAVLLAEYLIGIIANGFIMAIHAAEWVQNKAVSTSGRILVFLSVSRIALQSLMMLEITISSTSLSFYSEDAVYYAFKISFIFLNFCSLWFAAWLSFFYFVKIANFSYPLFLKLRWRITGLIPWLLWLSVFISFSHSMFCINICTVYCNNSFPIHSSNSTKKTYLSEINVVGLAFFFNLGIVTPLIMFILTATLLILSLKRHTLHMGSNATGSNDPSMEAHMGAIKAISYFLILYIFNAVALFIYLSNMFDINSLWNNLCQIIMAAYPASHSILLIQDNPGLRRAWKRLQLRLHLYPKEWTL
Protocol: as §1, §2, §3, §4

TAS2R4 [2] = molecular target: T1, TAS2R4; conditions: PCT/US12/61400; cited from earlier work
TAS2R13 = molecular target: T5, TAS2R13 (Homo sapiens, UniProt Q9NYV9); conditions: PCT/US12/61400; cited from earlier work
T5 construct: expressed in transfected cells
T5 sequence (Q9NYV9 1-303): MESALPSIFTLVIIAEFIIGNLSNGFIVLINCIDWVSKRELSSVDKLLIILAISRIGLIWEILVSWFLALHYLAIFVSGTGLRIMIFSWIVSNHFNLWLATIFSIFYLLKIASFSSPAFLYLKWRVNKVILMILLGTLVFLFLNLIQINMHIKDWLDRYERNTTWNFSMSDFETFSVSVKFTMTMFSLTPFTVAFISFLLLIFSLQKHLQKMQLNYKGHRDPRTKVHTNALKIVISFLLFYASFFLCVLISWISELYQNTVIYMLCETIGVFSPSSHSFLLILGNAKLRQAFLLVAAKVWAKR

SMILES	TAS2R4 bitter receptor activity (functional response) (TAS2R4 [1])	TAS2R14 bitter receptor activity (functional response) (TAS2R14)	TAS2R44 bitter receptor activity (functional response) (TAS2R44)	TAS2R39 bitter receptor activity (functional response) (TAS2R39)	EC50 (TAS2R4 [1])	EC50 (TAS2R14)	EC50 (TAS2R44)	EC50 (TAS2R39)	TAS2R4 response to stimulation, previously shown (TAS2R4 [2])	TAS2R13 response to stimulation, previously shown (TAS2R13)
O=[N+]([O-])[O-].[K+] [potassium nitrate]	induced	induced	induced	induced	–	–	–	–	–	–
O=S(=O)([O-])[O-].[K+].[K+] [potassium sulfate]	induced	induced	induced	induced	–	–	–	–	–	–
O=C([O-])c1ccccc1.[K+] [potassium benzoate]	induced	induced	induced	induced	5 to 10 mM	5 to 10 mM	5 to 10 mM	5 to 10 mM	–	–
O=C([O-])[C@H](O)[C@@H](O)[C@H](O)[C@H](O)CO.[K+] [potassium gluconate]	induced	induced	induced	induced	–	–	–	–	–	–
[Cl-].[K+] [KCl]	–	–	–	strongly and specifically responded	–	–	–	5 to 15 mM	specifically respond	specifically respond
CC(=O)[O-].[K+] [potassium acetate]	induced	induced	induced	did not induce	5 to 10 mM	5 to 10 mM	5 to 10 mM	–	–	–
C/C=C/C=C/C(=O)[O-].[K+] [potassium sorbate]	induced	induced	induced	induced	–	–	–	–	–	–
O=P([O-])([O-])O.[K+].[K+] [potassium phosphate (dibasic)]	induced	induced	induced	induced	–	–	–	–	–	–
